Where “and” joins values, the source holds several entries; their conditions need not be identical. Equal values may be shown once.
Details: Liquid; for mass density: Vibrating tube method; for viscosity: Vibrating wire viscometry

CC(C)CCCCCCCOC(=O)c1ccccc1C(=O)OCCCCCCCC(C)C
Details	mass density	viscosity
298.15 K, 101.33 kPa	963.81 kg/m3 [middle of 7 runs]	87.2 mPa·s and 87.5 mPa·s and 87.3 mPa·s
298.15 K, 5000 kPa	962.8 kg/m3	–
298.15 K, 10000 kPa	965.6 kg/m3	107.3 mPa·s
298.15 K, 20000 kPa	970.8 kg/m3	–
298.15 K, 30000 kPa	976 kg/m3	–
298.15 K, 50000 kPa	985.5 kg/m3	–
298.15 K, 70000 kPa	995.2 kg/m3	–
303.15 K, 101.33 kPa	–	64.6 mPa·s
303.15 K, 10000 kPa	–	78.5 mPa·s
303.15 K, 20000 kPa	–	98 mPa·s
303.15 K, 30000 kPa	–	120.9 mPa·s
308.15 K, 101.33 kPa	–	48.99 mPa·s
308.15 K, 10000 kPa	–	60.3 mPa·s
308.15 K, 20000 kPa	–	73.1 mPa·s
308.15 K, 30000 kPa	–	89 mPa·s
308.15 K, 50000 kPa	–	135.4 mPa·s
313.15 K, 101.33 kPa	–	37.74 mPa·s
313.15 K, 10000 kPa	–	46.5 mPa·s
313.15 K, 20000 kPa	–	57 mPa·s
313.15 K, 30000 kPa	–	68.1 mPa·s
313.15 K, 50000 kPa	–	100.1 mPa·s
323.15 K, 101.33 kPa	945.64 kg/m3 [middle of 7 runs]	23.85 mPa·s and 23.84 mPa·s
323.15 K, 5000 kPa	945.4 kg/m3	–
323.15 K, 10000 kPa	948.5 kg/m3	29.24 mPa·s
323.15 K, 20000 kPa	954.6 kg/m3	35.63 mPa·s
323.15 K, 30000 kPa	960.4 kg/m3	42.46 mPa·s
323.15 K, 50000 kPa	970.7 kg/m3	60.4 mPa·s
323.15 K, 70000 kPa	980.1 kg/m3	80.6 mPa·s
348.15 K, 101.33 kPa	927.68 kg/m3 [middle of 7 runs]	9.71 mPa·s and 9.72 mPa·s and 9.71 mPa·s
348.15 K, 5000 kPa	927.9 kg/m3	–
348.15 K, 10000 kPa	931.3 kg/m3	11.55 mPa·s
348.15 K, 20000 kPa	938 kg/m3	13.81 mPa·s
348.15 K, 30000 kPa	944.1 kg/m3	15.93 mPa·s
348.15 K, 50000 kPa	955.3 kg/m3	21.5 mPa·s
348.15 K, 70000 kPa	965.7 kg/m3	28.86 mPa·s
363.15 K, 101.33 kPa	917.07 kg/m3 [middle of 6 runs]	6.39 mPa·s
373.15 K, 101.33 kPa	907 kg/m3	5.03 mPa·s
373.15 K, 5000 kPa	911.1 kg/m3	–
373.15 K, 10000 kPa	914.8 kg/m3	5.92 mPa·s
373.15 K, 20000 kPa	922.1 kg/m3	6.96 mPa·s
373.15 K, 30000 kPa	929 kg/m3	7.84 mPa·s
373.15 K, 50000 kPa	941 kg/m3	10.33 mPa·s
373.15 K, 70000 kPa	952.1 kg/m3	13.45 mPa·s
398.15 K, 101.33 kPa	–	3.043 mPa·s
398.15 K, 5000 kPa	893.4 kg/m3	–
398.15 K, 10000 kPa	898.8 kg/m3	3.601 mPa·s
398.15 K, 20000 kPa	906.6 kg/m3	4.12 mPa·s
398.15 K, 30000 kPa	913.5 kg/m3	4.741 mPa·s
398.15 K, 50000 kPa	926 kg/m3	5.98 mPa·s
398.15 K, 70000 kPa	938.9 kg/m3	7.64 mPa·s
423.15 K, 101.33 kPa	–	2.052 mPa·s
423.15 K, 5000 kPa	877.5 kg/m3	–
423.15 K, 10000 kPa	881.6 kg/m3	2.401 mPa·s
423.15 K, 20000 kPa	890.4 kg/m3	2.707 mPa·s
423.15 K, 30000 kPa	898.6 kg/m3	3.001 mPa·s
423.15 K, 50000 kPa	912.6 kg/m3	3.857 mPa·s
423.15 K, 70000 kPa	926.7 kg/m3	4.826 mPa·s
